Patent publication US6939565B2, “Protease inhibitors of the coagulation cascade isolated from Dysidea sponges” (Pharmacia Corporation, priority 2001, dated 2005)

Assays:
Assay type in all cases: biochemical
TF/VIIa = target: T1, TF/VIIa (Homo sapiens, UniProt P08709); assay: Factor VIIa/TF inhibitory assay (chromogenic substrate, OD 405 nm); settings: recombinant human factor VIIa with recombinant soluble tissue factor
T1 construct: recombinant human factor VIIa
Experimental: To determine inhibitory activity, the compound having structure (1) was combined with recombinant human factor VIIa in black clear bottom well plates followed by a 10 minute room temperature incubation. Recombinant soluble tissue factor was then added followed by a 15 minute room temperature incubation. Finally, chromozymen tPA substrate was added and the plates were immediately read at 405 nm to determine background absorbance. After incubation, the rate of hydrolysis of the substrate was measured by monitoring the reaction at 405 nm for the release of p-nitroaniline. Percent inhibition of TF/VIIa activity was calculated from OD 405 nm value from the experimental and control sample. All hits 50% of control and less were confirmed and requested for IC50 values.
(§1) An aliquot of sample was injected onto C18 reversed-phase column with flow rate of 1 mL/min. Mass spectra were recorded from 150 to 1000 amu in both positive and negative modes using electrospray ionization. A splitter was attached immediately after the HPLC column so that a fraction of the eluent was directed towards the electrospray source. The remaining fraction was collected in deep-well plates. The plates were dried overnight and biassayed.

Xa = Xa (Homo sapiens, UniProt P00742); assay: HPLC-PDA-MS-bioassay, factor Xa inhibition
Experimental: as §1

Thrombin = target: T2, Thrombin (Homo sapiens, UniProt P00734); assay: HPLC-PDA-MS-bioassay, thrombin inhibition
T2 construct: Xa with factor Va converts prothrombin (II) to thrombin (IIa)
Experimental: as §1

Trypsin = assay: HPLC-PDA-MS-bioassay, trypsin inhibition
Experimental: as §1

Chain of Xa (P00742 41-179 limits assumed): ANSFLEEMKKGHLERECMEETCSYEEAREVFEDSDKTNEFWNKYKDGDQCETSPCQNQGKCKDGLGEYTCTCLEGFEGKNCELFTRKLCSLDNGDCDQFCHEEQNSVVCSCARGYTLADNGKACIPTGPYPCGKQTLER
Chain of Xa (P00742 235-488 limits assumed): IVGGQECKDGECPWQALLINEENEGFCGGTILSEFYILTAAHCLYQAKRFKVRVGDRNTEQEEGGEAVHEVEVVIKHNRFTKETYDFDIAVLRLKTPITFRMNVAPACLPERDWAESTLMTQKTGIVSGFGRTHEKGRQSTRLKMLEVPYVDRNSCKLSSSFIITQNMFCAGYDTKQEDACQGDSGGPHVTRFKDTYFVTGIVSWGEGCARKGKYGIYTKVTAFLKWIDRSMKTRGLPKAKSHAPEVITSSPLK
T1 sequence (P08709 61-212 limits assumed): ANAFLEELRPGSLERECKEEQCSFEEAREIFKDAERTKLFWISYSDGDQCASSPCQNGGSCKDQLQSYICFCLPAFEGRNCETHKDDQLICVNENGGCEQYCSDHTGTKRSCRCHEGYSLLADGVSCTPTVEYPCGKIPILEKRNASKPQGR
T1 sequence (P08709 213-466 limits assumed): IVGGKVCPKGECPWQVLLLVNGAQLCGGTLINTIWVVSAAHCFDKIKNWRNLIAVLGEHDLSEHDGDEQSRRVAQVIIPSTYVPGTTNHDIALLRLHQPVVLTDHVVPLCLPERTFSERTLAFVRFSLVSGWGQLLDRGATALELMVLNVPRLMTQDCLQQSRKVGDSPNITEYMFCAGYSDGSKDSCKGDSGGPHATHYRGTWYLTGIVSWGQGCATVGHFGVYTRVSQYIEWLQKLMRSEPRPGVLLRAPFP
T1 sequence (P13726 33-251 partner limits assumed): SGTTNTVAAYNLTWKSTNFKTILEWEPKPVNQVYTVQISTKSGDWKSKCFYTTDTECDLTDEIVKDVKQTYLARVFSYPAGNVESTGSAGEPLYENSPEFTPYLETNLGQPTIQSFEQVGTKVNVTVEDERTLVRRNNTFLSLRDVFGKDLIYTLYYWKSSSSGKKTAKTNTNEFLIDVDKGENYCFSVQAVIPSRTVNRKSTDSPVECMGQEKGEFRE

Q: Which IC50 (TF/VIIa) does the source give for `COC(COS(=O)(=O)O)C(=O)NC(C(=O)N1C(C(=O)NCCC2=CCN(C(=N)N)C2)CC2CC(O)C(O)CC21)C(Cl)C(C)C` (stereo not shown) [Structure 1] here?
A: 9 nM

Q: What about the IC50 (Xa) of the same compound?
A: 200 nM

Q: And the IC50 (Thrombin)?
A: 4 nM

Q: And the IC50 (Trypsin)?
A: 37 nM
